Patent US20260364184A1, “COMPOUND BASED ON OXOISOINDOLINYL-SUBSTITUTED TETRAHYDROPYRIMIDINE-DIONE AND USE THEREOF” (GLUETACS THERAPEUTICS (SHANGHAI) CO., LTD., priority 2023, published 2026)

molecular target: T1, AR (Homo sapiens, UniProt P10275); assay: Western blot degradation of AR; format: cell-based; conditions: LnCap Cell; 24 hours
T1 construct: expression of target proteins in cells; endogenous in cells
T1 sequence (P10275 1-920): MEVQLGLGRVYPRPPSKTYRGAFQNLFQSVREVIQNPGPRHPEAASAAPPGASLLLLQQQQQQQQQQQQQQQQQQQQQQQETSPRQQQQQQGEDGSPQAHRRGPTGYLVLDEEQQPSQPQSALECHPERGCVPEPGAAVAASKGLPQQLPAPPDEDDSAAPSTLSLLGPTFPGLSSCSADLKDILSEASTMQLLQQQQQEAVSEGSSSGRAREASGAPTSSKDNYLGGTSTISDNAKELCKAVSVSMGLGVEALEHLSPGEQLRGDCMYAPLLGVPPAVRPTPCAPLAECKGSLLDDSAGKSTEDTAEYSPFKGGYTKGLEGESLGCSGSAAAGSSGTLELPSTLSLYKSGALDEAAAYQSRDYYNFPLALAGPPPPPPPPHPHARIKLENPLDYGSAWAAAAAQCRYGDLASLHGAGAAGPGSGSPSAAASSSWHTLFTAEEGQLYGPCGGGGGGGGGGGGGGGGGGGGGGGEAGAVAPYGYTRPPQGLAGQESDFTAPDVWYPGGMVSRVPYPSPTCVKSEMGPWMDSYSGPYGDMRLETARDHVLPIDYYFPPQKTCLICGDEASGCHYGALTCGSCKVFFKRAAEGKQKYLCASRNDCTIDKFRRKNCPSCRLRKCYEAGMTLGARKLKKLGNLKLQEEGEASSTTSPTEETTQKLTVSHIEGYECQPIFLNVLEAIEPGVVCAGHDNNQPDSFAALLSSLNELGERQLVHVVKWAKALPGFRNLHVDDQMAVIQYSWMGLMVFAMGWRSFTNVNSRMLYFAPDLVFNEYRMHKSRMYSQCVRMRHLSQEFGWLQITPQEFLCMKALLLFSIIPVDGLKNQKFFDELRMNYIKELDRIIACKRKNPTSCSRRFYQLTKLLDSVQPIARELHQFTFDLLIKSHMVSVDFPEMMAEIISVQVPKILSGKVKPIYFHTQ
Experimental: Conventional Western blot assay was performed to evaluate the effects of the compounds of the present disclosure on the expression of target proteins in cells.
(1) Cell Seeding and Protein Harvesting: The selected cells were processed according to the cell seeding procedure and protein harvesting procedure in Table II-2.
(2) To the collected supernatant, 5×SDS sample loading buffer was added, followed by denaturation at 95 °C for 5 minutes. The denatured samples were then separated by SDS-PAGE electrophoresis on a polyacrylamide gel. Proteins were transferred to a nitrocellulose membrane (0.45 μm NC membrane), blocked with blocking buffer at room temperature for 1 hour, and subjected to antibody incubation and development procedures according to the antibody manufacturer's instructions (Cell Signaling Technology).
Half-Maximal Degradation Concentration value (the drug concentration required for degrading proteins by 50%, abbreviated as DC50) reads method: comparing the grayscale values of Western blot bands from drug-treated samples with those from blank DMSO-treated controls, and identifying the drug concentration range at which the grayscale value is half that of the DMSO-treated control bands.
DC50 values can be calculated using ImageJ software to measure grayscale values of Western blot bands from drug-treated samples. The concentration-response curve is fitted to estimate the drug concentration corresponding to half the grayscale value.
Target protein remaining (%) refers to the percentage of target protein remaining in cells after treatment with protein degrader compounds.
Calculation method for target protein remaining (%): Use ImageJ software to measure grayscale values of Western blot bands from drug (protein degrader)-treated samples. The grayscale value of drug-treated bands is divided by that of internal control protein bands, and the resulting quotient is normalized to obtain the relative percentage of remaining target protein after protein degrader treatment.
Target protein degradation rate (%)=1−target protein remaining (%).

| Compound | Degradation of substrate protein AR (substrate protein remaining %) |
| --- | --- |
| N#Cc1ccc(O[C@H]2CC[C@H](NC(=O)c3ccc(N4CCC(CN5CCN(c6ccc7c(c6)C(=O)N(N6CCC(=O)NC6=O)C7=O)CC5)CC4)nn3)CC2)cc1Cl [GT-05225, N-((1r,4r)-4-(3-chloro-4-cyanophenoxy)cyclohexyl)-6-(4-((4-(2-(2,4-dioxotetrahydropyrimidin-1(2H)-yl)-1,3-dioxoisoindolin-5-yl)piperazin-1-yl)methyl)piperidin-1-yl)pyridazine-3-carboxamide] | A (0%≤substrate protein remaining %≤80%) |
| CC1(C)[C@H](NC(=O)c2ccc(N3CCC(CN4CCN(c5ccc6c(c5F)C(=O)N(N5CCC(=O)NC5=O)C6=O)CC4)CC3)nc2)C(C)(C)[C@H]1Oc1ccc(C#N)c(Cl)c1 [GT-05828, N-((1r,3r)-3-(3-chloro-4-cyanophenoxy)-2,2,4,4-tetramethylcyclobutyl)-6-(4-((4-(2-(2,4-dioxotetrahydropyrimidin-1(2H)-yl)-4-fluoro-1,3-dioxoisoindolin-5-yl)piperazin-1-yl)methyl)piperidin-1-yl)nicotinamide] | A (0%≤substrate protein remaining %≤80%) |
| Cc1ccc(-c2c(C)noc2C)cc1N(CC1CCN(Cc2ccc3c(c2)CN(N2CCC(=O)NC2=O)C3=O)CC1)c1ccc(C2(C#N)CC2)cc1 [GT-06409, 1-(4-((5-(3,5-dimethylisoxazol-4-yl)-2-methylphenyl)((1-((2-(2,4-dioxotetrahydropyrimidin-1(2H)-yl)-1-oxoisoindolin-5-yl)methyl)piperidin-4-yl)methyl)amino)phenyl)cyclopropane-1-carbonitrile] | A (0%≤substrate protein remaining %≤80%) |
| Cc1ccc(-c2c(C)noc2C)cc1N(CC1CCN(Cc2ccc3c(c2)C(=O)N(N2CCC(=O)NC2=O)C3=O)CC1)c1ccc(C2(C#N)CC2)cc1 [GT-06410, 1-(4-((5-(3,5-dimethylisoxazol-4-yl)-2-methylphenyl)((1-((2-(2,4-dioxotetrahydropyrimidin-1(2H)-yl)-1,3-dioxoisoindolin-5-yl)methyl)piperidin-4-yl)methyl)amino)phenyl)cyclopropane-1-carbonitrile] | A (0%≤substrate protein remaining %≤80%) |
| Cn1cc(-c2cc(S(C)(=O)=O)ccc2OCc2ccc3c(c2)CN(N2CCC(=O)NC2=O)C3=O)c2cc[nH]c2c1=O [GT-06413, 1-(5-((2-(6-methyl-7-oxo-6,7-dihydro-1H-pyrrolo[2,3-c]pyridin-4-yl)-4-(methylsulfonyl)phenoxy)methyl)-1-oxoisoindolin-2-yl)dihydropyrimidine-2,4 (1H,3H)-dione] | A (0%≤substrate protein remaining %≤80%) |
| Cc1ccc(-c2c(C)noc2C)cc1N(CC1CCN(CC2CCN(c3ccc4c(c3)C(=O)N(N3CCC(=O)NC3=O)C4=O)CC2)CC1)c1ccc(C2(C#N)CC2)cc1 [GT-06418, 1-(4-((5-(3,5-dimethylisoxazol-4-yl)-2-methylphenyl)((1-((1-(2-(2,4-dioxotetrahydropyrimidin-1(2H)-yl)-1,3-dioxoisoindolin-5-yl)piperidin-4-yl)methyl)piperidin-4-yl)methyl)amino)phenyl)cyclopropane-1-carbonitrile] | A (0%≤substrate protein remaining %≤80%) |
